Results reported in patent US20170190744A1 (Vicuron Pharmaceuticals, Inc., priority 2015, published 2017).
Values after ≈ are worked out from the molar mass of the structure shown. Read-outs that look alike come from different tables or passages of the source.

Key:
human α-glycoprotein = assay: Protein binding by isothermal titration microcalorimetry; conditions: 25° C.
Description: For comparison, similar experiments with some necessary modifications were performed using teicoplanin.
Teicoplanin was studied with human albumin and α-glycoprotein.
Integrated heat effects, after correction for heats of dilution, were analyzed by non-linear regression using a simple single-site binding model with the standard Microcal ORIGIN software package. Raw data (μcal/sec) for each injection were integrated to give the total heat effect per addition, then divided by amount of injectant to give kcal/mole of injectant. The same integration was applied for control dilution effects, and this was subtracted from the actual titration data. This provided a differential of the binding curve in which the extent of binding is proportional to the total heat liberated (or absorbed). This was then analyzed by non-linear regression methods in terms of various standard binding models. The simplest model assumes simple non-competitive binding equilibrium, and gives three parameters:

[1] = ESI mass spectroscopy of multimers in solution; assay type: physicochemical; conditions: ESI-MS
Description: Experiments were performed using an Applied Biosystem API III+ mass spectrometer equipped with a TurbolonSpray source, a Triple Quadrupole analyzer, operating in positive ion mode.
The mass spectra were obtained in electrospray positive mode on a Finnigan LCQ^Deca ion trap instrument previously tuned and calibrated in electrospray mode using Ultramark 1621, caffeine and MRFA (L-metionyl-arginyl-phenilalanyl-arginine).

[2] = test system: MSSA Staph. aureus Smith 819; assay: MIC (microbiological activity); assay type: cell-based; conditions: Staphylococcus aureus
MRSA Staph. aureus 3817 = assay: MIC (microbiological activity); assay type: cell-based; conditions: Staphylococcus aureus
[3] = test system: CR-BSI due to gram-positive bacterial pathogens; assay: Catheter-related blood stream infection (CR-BSI) trial: efficacy; assay type: in vivo, human; conditions: microbiological ITT population; dalbavancin 1000 mg day 1 + 500 mg day 8 IV; vancomycin 1000 mg IV every 12 hours
Description: This study evaluated the safety and efficacy (clinical and microbiological) of a weekly dosing regimen of dalbavancin in the treatment of adults with catheter-related blood stream infection (CR-BSI) due to gram-positive bacterial pathogens, relative to the standard care of treatment, vancomycin.
Patients with CR-BSI due to suspected or known Gram-positive pathogen(s) who met the inclusion/exclusion criteria were randomized to one of two treatment arms in this open-label, comparative, multi-center study. Dalbavancin was administered once weekly in weekly dalbavancin and comparator (vancomycin) was administered daily in vancomycin. Catheter removal was required for patients with Staphylococcus aureus infection; catheter management was left to the Investigator's discretion for patients with coagulase-negative staphylococci (CoNS) infection. Efficacy was clinically based on the improvement or resolution of clinical signs and symptoms of CR-BSI such that no additional antibacterials were warranted, and microbiologically on the eradication or presence of the baseline or other pathogens. […]
Efficacy was evaluated based on clinical and microbiological responses.
For the primary efficacy analysis, 95% confidence intervals were also determined, and for prognostic factor analyses using the primary efficacy variable, logistic regression was used.

gram positive bacteria = assay: MIC by broth microdilution (NCCLS), with or without 30% bovine serum (Example 19); assay type: cell-based
Description: (§1) The compounds were prepared according to the examples above and the methods described in U.S. Patent Application Publication No. 2004/0142883. Individual dalbavancin compounds were purified by HPLC. […] Before dissolution, each sample was analyzed by HPLC and quantified. […] Louis, Mo.), Gentamycin (GE) (Sigma Chemical Co., St. Louis, Mo.), Penicillin G (Pen.G) (Sigma Chemical Co., St. Louis, Mo.), and Amphotericin B (Amph.B) (Sigma Chemical Co., St. Louis, Mo.). The microorganisms used were reference strains obtained from the American Type Culture Collection (ATCC) (Rockville, Md.), SmithKline and French Laboratories (SKF), and the Upjohn Company (UC) (Kalamazoo, Mich.).

gram-negative bacteria [4] = assay: as above; assay type: cell-based
Description: as §1

gram-positive bacteria = assay: MIC by broth microdilution (NCCLS), IsoB0 and reference compounds; assay type: cell-based
Description: Müller Hinton broth (Difco Laboratories, Detroit, Mich., USA) adjusted with CaCl2 and MgCl2 to a final concentrations of 20 mg/L and 10 mg/L respectively.
Adult bovine serum (BS) (batch A05123-159 PAA Laboratories GmBH Haidmannweg Pasching Austria).
The microorganisms used are reference standard strains from the American Type Culture Collection (ATCC, Rockville, USA), Smith Kline and French Laboratories (SKF) and the Upjohn Company (UC, Kalamazoo, Mich., USA).
(§2) MICs were determined by the broth microdilution methodology following the standard NCCLS procedure, with or without 30% bovine serum, using bacterial inocula of approximately 5×10^5 CFU/mL. Tests were read after 20-24 h incubation at 35° C.

[5] = test system: Candida albicans SKF 2270; assay: MIC by broth microdilution (NCCLS), with or without 30% bovine serum (Example 19); assay type: cell-based; conditions: Candida albicans, SKF2270
Description: MICs were determined by the broth microdilution methodology following the standard NCCLS procedure (NCCLS Document M7-A6, Vol. 23, No. 2, “Methods for dilution antimicrobial susceptibility tests for bacteria that grow aerobically.” Approved Guideline. January 2003, which can be herein incorporated by reference in its entirety), with or without 30% adult bovine serum (BS) (PAA Laboratories GmBH, Haidmannweg Pasching Austria), using bacterial innocula at approximately 5×10^5 CFU/ml. The media employed included cation-adjusted Müller Hinton broth (Difco Laboratories, Detroit, Mich.) that was used that was adjusted with CaCl2 and MgCl2 to a final concentration of 20 mg/L and 10 mg/L, respectively. Tests were read following 20-24 hours of incubation at 35° C.

gram-negative bacteria [6] = assay: MIC by broth microdilution (NCCLS), IsoB0 and reference compounds; assay type: cell-based
Description: as §2

Candida albicans SKF2270 = assay: as above; assay type: cell-based
[7] = In vivo biological activity of IsoB0
[8] = Enterococcus faecalis, ATCC7080
[9] = Enterococcus faecalis, ATCC29212
[10] = Staphylococcus aureus, ATCC19636
[11] = Staphylococcus aureus, ATCC29213
[12] = Staphylococcus epidermidis, ATCC12228

teicoplanin
apparent binding affinity Ka, α-glycoprotein (human α-glycoprotein): 0.07 (±0.01) × 10^5M^−1 | multimers in solution [1]: does not show multimeric complexes

CN[C@H](CC(C)C)C(=O)N[C@H]1C(=O)N[C@@H](CC(N)=O)C(=O)N[C@H]2C(=O)N[C@H]3C(=O)N[C@H](C(=O)N[C@H](C(=O)O)c4cc(O)cc(O)c4-c4cc3ccc4O)[C@H](O)c3ccc(c(Cl)c3)Oc3cc2cc(c3O[C@@H]2O[C@H](CO)[C@@H](O)[C@H](O)[C@H]2O[C@H]2C[C@](C)(N)[C@H](O)[C@H](C)O2)Oc2ccc(cc2Cl)[C@H]1O [Vancomycin, vancomycin, reference compound]
MIC [2]: 0.5 µg/mL (≈ 0.345 µM) | MIC (MRSA Staph. aureus 3817): 0.5 µg/mL (≈ 0.345 µM) | overall response success rate at TOC [3]: 50.0% | MIC (gram positive bacteria): 1 µg/mL (≈ 0.69 µM) | MIC (gram positive bacteria; [8]): 1 µg/mL (≈ 0.69 µM) | MIC (gram positive bacteria; [9]): 2 µg/mL (≈ 1.38 µM) | MIC (gram positive bacteria; [10]): 1 µg/mL (≈ 0.69 µM) | MIC (gram positive bacteria; [11]): 2 µg/mL (≈ 1.38 µM) | MIC (gram positive bacteria; [12]): 2 µg/mL (≈ 1.38 µM) | MIC (gram positive bacteria; Streptococcus pneumoniae, UC41): 0.5 µg/mL (≈ 0.345 µM) | MIC (gram-negative bacteria [4]): > 128 µg/mL | MIC (gram-negative bacteria [4]; Escherichia coli): > 128 µg/mL | MIC (gram-negative bacteria [4]; Escherichia coli, ATCC25922): > 128 µg/mL | MIC (gram-negative bacteria [4]; Proteus vulgaris, ATCC881): > 128 µg/mL | MIC (gram-positive bacteria; [8]): 1 µg/mL (≈ 0.69 µM) | MIC (gram-positive bacteria; [9]): 2 µg/mL (≈ 1.38 µM) | MIC (gram-positive bacteria; [10]): 1 µg/mL (≈ 0.69 µM) | MIC (gram-positive bacteria; [11]): 2 µg/mL (≈ 1.38 µM) | MIC (gram-positive bacteria; [12]): 2 µg/mL (≈ 1.38 µM) | MIC (gram-positive bacteria; Streptococcus pneumoniae, UC41): 0.5 µg/mL (≈ 0.345 µM) | MIC (gram-positive bacteria; Streptococcus pyogenes): 1 µg/mL (≈ 0.69 µM) | MIC [5]: > 128 µg/mL | MIC (gram-negative bacteria [6]): > 128 µg/mL | MIC (gram-negative bacteria [6]; Escherichia coli): > 128 µg/mL | MIC (gram-negative bacteria [6]; Escherichia coli, ATCC25922): > 128 µg/mL | MIC (gram-negative bacteria [6]; Proteus vulgaris, ATCC881): > 128 µg/mL | MIC (Candida albicans SKF2270): > 128 µg/mL

CNC1C(=O)NC2Cc3ccc(cc3)Oc3cc4cc(c3OC3OC(C(=O)O)C(O)C(O)C3NC(=O)CCCCCCCCC(C)C)Oc3ccc(cc3Cl)C(O)C3NC(=O)C(NC(=O)C4NC(=O)C(NC2=O)c2cc(cc(O)c2Cl)Oc2cc1ccc2O)c1ccc(O)c(c1)-c1c(OC2OC(CO)C(O)C(O)C2O)cc(O)cc1C(C(=O)NCCCN(C)C)NC3=O (stereo not drawn) [IsoB0]
MIC (gram-positive bacteria; Bacillus subtilis ATCC6633): ≦0.06 mg/L | MIC (gram-positive bacteria; E. faecalis ATCC29212 ref. strain): 0.25 µg/mL (≈ 0.138 µM) | MIC (gram-positive bacteria; [8]): 0.25 µg/mL (≈ 0.138 µM) | MIC (gram-positive bacteria; S. aureus ATCC29213 ref. strain): 0.25 µg/mL (≈ 0.138 µM) | MIC (gram-positive bacteria; S. aureus Smith + 30% BS): 16 µg/mL | MIC (gram-positive bacteria; S. epidermidis ATCC12228): 0.125 µg/mL (≈ 0.0688 µM) | MIC (gram-positive bacteria; S. pneumoniae Felton UC41): 0.125 µg/mL (≈ 0.0688 µM) | MIC (gram-positive bacteria; Staphylococcus aureus Smith ATCC19636): 0.5 µg/mL (≈ 0.275 µM) | MIC (gram-positive bacteria; Streptococcus pyogenes SKF13400): 0.06 µg/mL (≈ 0.033 µM) | activity against a panel of gram-positive bacteria (gram-positive bacteria; compared with dalbavancin): very similar to dalbavancin | in vivo biological activity [7]: comparable to that of dalbavancin B0 | MIC (gram-negative bacteria [6]; E. coli ATCC25922 ref. strain): 64 µg/mL (≈ 35.2 µM) | MIC (gram-negative bacteria [6]; Escherichia coli SKF 12140): 64 µg/mL (≈ 35.2 µM) | MIC (gram-negative bacteria [6]; Proteus vulgaris, ATCC881): >64 µg/mL | MIC (gram-negative bacteria [6]; Pseudomonas aeruginosas ATCC 10145): >64 µg/mL | MIC (Candida albicans SKF2270): >64 µg/mL
